Measured values published in PubChem BioAssay AID1963843 (Molecular Pharmacology Branch, DTP, NCI, 2024).

Tested on: 616215-338-R-J1-PDC complex spheroid viability
Test: Anticancer human tumor 616215-338-R-J1-PDC patient-derived colon adenocarcinoma cell line growth inhibition [POLQ]
Conditions: for IC50: curve of first compound; for viability, T/C: stronger effect = lower value
How it was run: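 Patient-derived tumour cells were co-cultured with HUVEC and mesenchymal stem cells as multicellular spheroids at 37 °C. They were treated with POLQ inhibitors (novobiocin, ART-558, RP6685) alone or combined with other agents. Top concentrations were at or near clinical Cmax (otherwise 10 microM; SN-38 at 1 microM), decreasing in half-log steps.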

[1] = second compound 0.0316 µM, first compound 0.0316 µM
[2] = second compound 0.0316 µM, first compound 0.1 µM
[3] = second compound 0.0316 µM, first compound 0.316 µM
[4] = second compound 0.0316 µM, first compound 1 µM
[5] = second compound 0.0316 µM, first compound 3.16 µM
[6] = second compound 0.0316 µM, first compound 10 µM
[7] = second compound 0.1 µM, first compound 0.0316 µM
[8] = second compound 0.1 µM, first compound 0.1 µM
[9] = second compound 0.1 µM, first compound 0.316 µM
[10] = second compound 0.1 µM, first compound 1 µM
[11] = second compound 0.1 µM, first compound 3.16 µM
[12] = second compound 0.1 µM, first compound 10 µM
[13] = second compound 0.316 µM, first compound 0.0316 µM
[14] = second compound 0.316 µM, first compound 0.1 µM
[15] = second compound 0.316 µM, first compound 0.316 µM
[16] = second compound 0.316 µM, first compound 1 µM
[17] = second compound 0.316 µM, first compound 3.16 µM
[18] = second compound 0.316 µM, first compound 10 µM
[19] = second compound 1 µM, first compound 0.0316 µM
[20] = second compound 1 µM, first compound 0.1 µM
[21] = second compound 1 µM, first compound 0.316 µM
[22] = second compound 1 µM, first compound 1 µM
[23] = second compound 1 µM, first compound 3.16 µM
[24] = second compound 1 µM, first compound 10 µM
[25] = second compound 3.16 µM, first compound 0.0316 µM
[26] = second compound 3.16 µM, first compound 0.1 µM
[27] = second compound 3.16 µM, first compound 0.316 µM
[28] = second compound 3.16 µM, first compound 1 µM
[29] = second compound 3.16 µM, first compound 3.16 µM
[30] = second compound 3.16 µM, first compound 10 µM
[31] = second compound 10 µM, first compound 0.0316 µM
[32] = second compound 10 µM, first compound 0.1 µM
[33] = second compound 10 µM, first compound 0.316 µM
[34] = second compound 10 µM, first compound 1 µM
[35] = second compound 10 µM, first compound 3.16 µM
[36] = second compound 10 µM, first compound 10 µM
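Further: spheroids exposed to compounds for one week before readout.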
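Wherever viability, T/C is given: percent viability relative to DMSO vehicle wells taken as 100%.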

COc1cc(C2c3cc4c(cc3C(OC3OC5COC(C)OC5C(O)C3O)C3COC(=O)C23)OCO4)cc(OC)c1O (stereo unspecified) + Cc1cccc(N(C)C(=O)C2C(O)CCN2c2nc(C)cc(C(F)(F)F)c2C#N)c1
IC50 (second compound 0.0316 µM): > 10 µM
IC50 (second compound 0.1 µM): > 10 µM
IC50 (second compound 0.316 µM): 9.66 µM
IC50 (second compound 1 µM): 9.43 µM
IC50 (second compound 3.16 µM): > 10 µM
IC50 (second compound 10 µM): 9.51 µM
viability, T/C [1]: 95.8%
viability, T/C [2]: 102%
viability, T/C [3]: 85.3%
viability, T/C [4]: 94%
viability, T/C [5]: 70.9%
viability, T/C [6]: 61.5%
viability, T/C [7]: 94.8%
viability, T/C [8]: 95.5%
viability, T/C [9]: 94.1%
viability, T/C [10]: 77.9%
viability, T/C [11]: 80.6%
viability, T/C [12]: 50.8%
viability, T/C [13]: 95.4%
viability, T/C [14]: 101%
viability, T/C [15]: 88.6%
viability, T/C [16]: 85.1%
viability, T/C [17]: 73.4%
viability, T/C [18]: 48.8%
viability, T/C [19]: 94.4%
viability, T/C [20]: 96.5%
viability, T/C [21]: 85.4%
viability, T/C [22]: 81.4%
viability, T/C [23]: 76.7%
viability, T/C [24]: 47.2%
viability, T/C [25]: 105%
viability, T/C [26]: 106%
viability, T/C [27]: 80.5%
viability, T/C [28]: 81.7%
viability, T/C [29]: 78%
viability, T/C [30]: 48.9%
viability, T/C [31]: 107%
viability, T/C [32]: 102%
viability, T/C [33]: 68.4%
viability, T/C [34]: 93.3%
viability, T/C [35]: 67.4%
viability, T/C [36]: 44.7%

Nc1ccn(C2OC(CO)C(O)C2(F)F)c(=O)n1 (stereo unspecified) + Cc1cccc(N(C)C(=O)C2C(O)CCN2c2nc(C)cc(C(F)(F)F)c2C#N)c1
IC50 (second compound 0.0316 µM): 0.0423 µM
IC50 (second compound 0.1 µM): 0.0536 µM
IC50 (second compound 0.316 µM): 0.058 µM
IC50 (second compound 1 µM): 0.0498 µM
IC50 (second compound 3.16 µM): 0.0575 µM
IC50 (second compound 10 µM): 0.0593 µM
viability, T/C [1]: 55.2%
viability, T/C [2]: 36.6%
viability, T/C [3]: 22.8%
viability, T/C [4]: 30.8%
viability, T/C [5]: 29.6%
viability, T/C [6]: 27%
viability, T/C [7]: 62.2%
viability, T/C [8]: 37.8%
viability, T/C [9]: 23.4%
viability, T/C [10]: 28.1%
viability, T/C [11]: 40.2%
viability, T/C [12]: 28.8%
viability, T/C [13]: 66.7%
viability, T/C [14]: 36.1%
viability, T/C [15]: 26%
viability, T/C [16]: 25.7%
viability, T/C [17]: 34.4%
viability, T/C [18]: 28.9%
viability, T/C [19]: 61.9%
viability, T/C [20]: 32.2%
viability, T/C [21]: 25.4%
viability, T/C [22]: 28.8%
viability, T/C [23]: 26.7%
viability, T/C [24]: 27.1%
viability, T/C [25]: 62.5%
viability, T/C [26]: 40.4%
viability, T/C [27]: 25.5%
viability, T/C [28]: 29.4%
viability, T/C [29]: 28.2%
viability, T/C [30]: 26.8%
viability, T/C [31]: 63.9%
viability, T/C [32]: 40.5%
viability, T/C [33]: 26%
viability, T/C [34]: 27.1%
viability, T/C [35]: 30.1%
viability, T/C [36]: 26.2%

O=c1[nH]cc(F)c(=O)[nH]1 + Cc1cccc(N(C)C(=O)C2C(O)CCN2c2nc(C)cc(C(F)(F)F)c2C#N)c1
IC50 (second compound 0.0316 µM): > 10 µM
IC50 (second compound 0.1 µM): > 10 µM
IC50 (second compound 0.316 µM): > 10 µM
IC50 (second compound 1 µM): > 10 µM
IC50 (second compound 3.16 µM): > 10 µM
IC50 (second compound 10 µM): > 10 µM
viability, T/C [1]: 92.1%
viability, T/C [2]: 108%
viability, T/C [3]: 69.8%
viability, T/C [4]: 68.6%
viability, T/C [5]: 61.2%
viability, T/C [6]: 56.3%
viability, T/C [7]: 101%
viability, T/C [8]: 108%
viability, T/C [9]: 68.7%
viability, T/C [10]: 61.7%
viability, T/C [11]: 60.1%
viability, T/C [12]: 63.4%
viability, T/C [13]: 102%
viability, T/C [14]: 116%
viability, T/C [15]: 75.6%
viability, T/C [16]: 57.5%
viability, T/C [17]: 56.9%
viability, T/C [18]: 66.8%
viability, T/C [19]: 106%
viability, T/C [20]: 99.7%
viability, T/C [21]: 68.6%
viability, T/C [22]: 65.1%
viability, T/C [23]: 56.2%
viability, T/C [24]: 58.2%
viability, T/C [25]: 99.9%
viability, T/C [26]: 102%
viability, T/C [27]: 70%
viability, T/C [28]: 63.6%
viability, T/C [29]: 59.9%
viability, T/C [30]: 64.2%
viability, T/C [31]: 97.6%
viability, T/C [32]: 106%
viability, T/C [33]: 70.3%
viability, T/C [34]: 54.9%
viability, T/C [35]: 54.5%
viability, T/C [36]: 59.6%
